# From the supplement of paper PMC10307832
# Experiments:
# Assay in all cases: relative viability (nuclei count vs DMSO), 5 days (fraction); higher = more cells survive
# NCI-H838 = test system: NCI-H838
# Summary of the method: (§1)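 Nuclei were stained with Hoechst during a one-step fixation (final 0.05% Triton X-100, 1% formaldehyde, 1 ug/ml Hoechst) carried out 5 days after dosing, then counted on 4× images. The cells, lung cancer lines in 1536-well plates, had been dosed by pin tool the day after seeding with one drug alone or a fixed anchor-drug dose plus five library-drug doses (not always all listed) in √10 steps. Relative viability is the nuclei count in treated wells divided by that in vehicle wells, and each value is the median of duplicate plates.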
# NCI-H1651 = test system: NCI-H1651
# Summary of the method: as §1
# RERF-LC-KJ = test system: RERF-LC-KJ
# Summary of the method: as §1
# SK-MES-1 = test system: SK-MES-1
# Summary of the method: as §1
# HCC-15 = test system: HCC-15
# Summary of the method: as §1
# BEN = test system: BEN
# Summary of the method: as §1
# NCI-H23 = test system: NCI-H23
# Summary of the method: as §1
# NCI-H520 = test system: NCI-H520
# Summary of the method: as §1
# H3255 = test system: H3255
# Summary of the method: as §1
# NCI-H1650 = test system: NCI-H1650
# Summary of the method: as §1
# NCI-H650 = test system: NCI-H650
# Summary of the method: as §1
# NCI-H1792 = test system: NCI-H1792
# Summary of the method: as §1
# NCI-H1993 = test system: NCI-H1993
# Summary of the method: as §1
# NCI-H1395 = test system: NCI-H1395
# Summary of the method: as §1
# NCI-H2009 = test system: NCI-H2009
# Summary of the method: as §1
# NCI-H1755 = test system: NCI-H1755
# Summary of the method: as §1
# SK-LU-1 = test system: SK-LU-1
# Summary of the method: as §1
# PC-3 [JPC-3] = test system: PC-3 [JPC-3]
# Summary of the method: as §1
# A-427 = test system: A-427
# Summary of the method: as §1
# NCI-H727 = test system: NCI-H727
# Summary of the method: as §1
# LC-2-ad = test system: LC-2-ad
# Summary of the method: as §1
# NCI-H2085 = test system: NCI-H2085
# Summary of the method: as §1
# NCI-H647 = test system: NCI-H647
# Summary of the method: as §1
# LCLC-97TM1 = test system: LCLC-97TM1
# Summary of the method: as §1
# NCI-H661 = test system: NCI-H661
# Summary of the method: as §1
smiles,measurement,setting,value
Nc1cccc2c1CN(C1CCC(=O)NC1=O)C2=O (stereo not drawn) [Lenalidomide] + CC(=O)Nc1cccc(-n2c(=O)n(C3CC3)c(=O)c3c(Nc4ccc(I)cc4F)n(C)c(=O)c(C)c32)c1 [Trametinib] (partner 0.02 µM),relative viability,NCI-H838; first compound 0.253 µM,0.517
same,relative viability,NCI-H838; first compound 0.8 µM,0.463
same,relative viability,NCI-H838; first compound 2.53 µM,0.625
same,relative viability,NCI-H838; first compound 8 µM,0.378
same,relative viability,NCI-H1651; first compound 0.253 µM,0.79
same,relative viability,NCI-H1651; first compound 0.8 µM,0.932
same,relative viability,NCI-H1651; first compound 2.53 µM,0.902
same,relative viability,NCI-H1651; first compound 8 µM,0.82
same,relative viability,RERF-LC-KJ; first compound 0.253 µM,0.875
same,relative viability,RERF-LC-KJ; first compound 0.8 µM,0.886
same,relative viability,RERF-LC-KJ; first compound 2.53 µM,0.915
same,relative viability,RERF-LC-KJ; first compound 8 µM,0.85
same,relative viability,SK-MES-1; first compound 0.253 µM,0.599
same,relative viability,SK-MES-1; first compound 0.8 µM,0.628
same,relative viability,SK-MES-1; first compound 2.53 µM,0.568
same,relative viability,SK-MES-1; first compound 8 µM,0.578
same,relative viability,HCC-15; first compound 0.253 µM,0.412
same,relative viability,HCC-15; first compound 0.8 µM,0.427
same,relative viability,HCC-15; first compound 2.53 µM,0.377
same,relative viability,HCC-15; first compound 8 µM,0.334
same,relative viability,BEN; first compound 0.253 µM,1.1
same,relative viability,BEN; first compound 0.8 µM,1.07
same,relative viability,BEN; first compound 2.53 µM,1.18
same,relative viability,BEN; first compound 8 µM,0.913
same,relative viability,NCI-H23; first compound 0.253 µM,0.398
same,relative viability,NCI-H23; first compound 2.53 µM,0.426
same,relative viability,NCI-H23; first compound 8 µM,0.412
same,relative viability,NCI-H520; first compound 0.253 µM,0.732
same,relative viability,NCI-H520; first compound 0.8 µM,0.615
same,relative viability,NCI-H520; first compound 2.53 µM,0.835
same,relative viability,NCI-H520; first compound 8 µM,0.452
same,relative viability,H3255; first compound 0.253 µM,0.547
same,relative viability,H3255; first compound 0.8 µM,0.624
same,relative viability,H3255; first compound 2.53 µM,0.661
same,relative viability,H3255; first compound 8 µM,0.541
same,relative viability,NCI-H1650; first compound 0.253 µM,0.421
same,relative viability,NCI-H1650; first compound 0.8 µM,0.432
same,relative viability,NCI-H1650; first compound 2.53 µM,0.551
same,relative viability,NCI-H1650; first compound 8 µM,0.684
same,relative viability,NCI-H650; first compound 0.253 µM,0.983
same,relative viability,NCI-H650; first compound 0.8 µM,1
same,relative viability,NCI-H650; first compound 2.53 µM,0.963
same,relative viability,NCI-H650; first compound 8 µM,0.891
same,relative viability,NCI-H1792; first compound 0.253 µM,0.445
same,relative viability,NCI-H1792; first compound 0.8 µM,0.369
same,relative viability,NCI-H1792; first compound 2.53 µM,0.59
same,relative viability,NCI-H1792; first compound 8 µM,0.366
same,relative viability,NCI-H1993; first compound 0.253 µM,0.491
same,relative viability,NCI-H1993; first compound 0.8 µM,0.503
same,relative viability,NCI-H1993; first compound 2.53 µM,0.474
same,relative viability,NCI-H1993; first compound 8 µM,0.518
same,relative viability,NCI-H1395; first compound 0.253 µM,0.988
same,relative viability,NCI-H1395; first compound 2.53 µM,1.1
same,relative viability,NCI-H1395; first compound 8 µM,0.929
same,relative viability,NCI-H2009; first compound 0.253 µM,0.297
same,relative viability,NCI-H2009; first compound 0.8 µM,0.28
same,relative viability,NCI-H2009; first compound 2.53 µM,0.283
same,relative viability,NCI-H2009; first compound 8 µM,0.28
same,relative viability,NCI-H1755; first compound 0.253 µM,0.729
same,relative viability,NCI-H1755; first compound 0.8 µM,0.806
same,relative viability,NCI-H1755; first compound 2.53 µM,0.766
same,relative viability,NCI-H1755; first compound 8 µM,0.63
same,relative viability,SK-LU-1; first compound 0.253 µM,0.515
same,relative viability,SK-LU-1; first compound 0.8 µM,0.443
same,relative viability,SK-LU-1; first compound 2.53 µM,0.596
same,relative viability,SK-LU-1; first compound 8 µM,0.432
same,relative viability,PC-3 [JPC-3]; first compound 0.253 µM,0.705
same,relative viability,PC-3 [JPC-3]; first compound 0.8 µM,0.681
same,relative viability,PC-3 [JPC-3]; first compound 2.53 µM,0.731
same,relative viability,PC-3 [JPC-3]; first compound 8 µM,0.743
same,relative viability,A-427; first compound 0.253 µM,0.731
same,relative viability,A-427; first compound 0.8 µM,0.724
same,relative viability,A-427; first compound 2.53 µM,0.825
same,relative viability,A-427; first compound 8 µM,0.765
same,relative viability,NCI-H727; first compound 0.253 µM,0.383
same,relative viability,NCI-H727; first compound 0.8 µM,0.378
same,relative viability,NCI-H727; first compound 2.53 µM,0.35
same,relative viability,NCI-H727; first compound 8 µM,0.376
same,relative viability,LC-2-ad; first compound 0.253 µM,0.868
same,relative viability,LC-2-ad; first compound 0.8 µM,0.943
same,relative viability,LC-2-ad; first compound 2.53 µM,0.972
same,relative viability,LC-2-ad; first compound 8 µM,0.968
same,relative viability,NCI-H2085; first compound 0.253 µM,0.507
same,relative viability,NCI-H2085; first compound 0.8 µM,0.405
same,relative viability,NCI-H2085; first compound 2.53 µM,0.515
same,relative viability,NCI-H2085; first compound 8 µM,0.464
same,relative viability,NCI-H647; first compound 0.253 µM,0.47
same,relative viability,NCI-H647; first compound 0.8 µM,0.413
same,relative viability,NCI-H647; first compound 2.53 µM,0.691
same,relative viability,NCI-H647; first compound 8 µM,0.422
same,relative viability,LCLC-97TM1; first compound 0.253 µM,0.183
same,relative viability,LCLC-97TM1; first compound 0.8 µM,0.239
same,relative viability,LCLC-97TM1; first compound 2.53 µM,0.212
same,relative viability,LCLC-97TM1; first compound 8 µM,0.159
same,relative viability,NCI-H661; first compound 0.253 µM,0.529
same,relative viability,NCI-H661; first compound 0.8 µM,0.593
same,relative viability,NCI-H661; first compound 2.53 µM,0.591
same,relative viability,NCI-H661; first compound 8 µM,0.533
